From patent US10807968B2, “Substituted 2-(het)arylimidazolylcarboxyamides as pesticides” (Bayer CropScience Aktiengesellschaft, priority 2016, dated 2020)
Read-outs that look alike come from different tables or passages of the source.

Columns and labels:
[1] = log P determination by HPLC on reversed-phase (C18) columns, OECD Guideline 117; type: physicochemical; details: for chromatographic logP: reversed-phase (C18) HPLC column
Protocol: The log P values were determined in accordance with OECD Guideline 117 (EC Directive 92/69/EEC) by HPLC (high-performance liquid chromatography) using reversed-phase (RP) columns (C18), by the following methods:
[a] The LC-MS determination in the acidic range was carried out at pH 2.7 with 0.1% aqueous formic acid and acetonitrile (contains 0.1% formic acid) as mobile phases; linear gradient from 10% acetonitrile to 95% acetonitrile.
[b] LC-MS determination in the neutral range was carried out at pH 7.8 with 0.001 molar aqueous ammonium hydrogencarbonate solution and acetonitrile as mobile phases; linear gradient from 10% acetonitrile to 95% acetonitrile.

Myzus persicae [2] = experiment: Myzus persicae - oral test; type: in vivo; details: after 5 days; for efficacy in % (aphids killed): 20 ppm; for pest or weed control at 20 ppm: Myzus persicae, 120 h, read-out: efficacy in % (aphids killed)
Protocol: Solvent: 100 parts by weight of acetone
Subsequently, the plates are sealed with parafilm, which a mixed population of green peach aphids (Myzus persicae) within a second microtitre plate is able to puncture and imbibe the solution through it.
After 5 days, the efficacy in % is determined. 100% means that all the aphids have been killed; 0% means that no aphids have been killed.

Myzus persicae [3] = experiment: Myzus persicae - spray test (Chinese cabbage leaf discs); type: in vivo; details: 500 g/ha, after 6 days; for pest or weed control at 500 g/ha: Myzus persicae, foliar, 144 h, read-out: efficacy in % (aphids killed)
Protocol: Myzus persicae—Spray Test
Solvent: 78 parts by weight of acetone • • 1.5 parts by weight of dimethylformamide
Emulsifier: alkylaryl polyglycol ether
To produce a suitable preparation of active compound, 1 part by weight of active compound is dissolved using the specified parts by weight of solvent and made up with water containing an emulsi fier concentration of 1000 ppm until the desired concentration is attained. To produce further test concentrations, the formulation is diluted with emulsifier-containing water.
Discs of Chinese cabbage leaves (Brassica pekinensis) infested by all stages of the green peach aphid (Myzus persicae) are sprayed with an active compound formulation of the desired concentration.
After 6 days, the efficacy in % is determined. 100% means that all the aphids have been killed; 0% means that no aphids have been killed.

[4] = pH 7.8, HPLC, neutral range pH 7.8, 0.001 molar aqueous ammonium hydrogencarbonate/acetonitrile, read-out: logp-neutral
[5] = HPLC, acidic range pH 2.7, 0.1% aqueous formic acid/acetonitrile
[6] = HPLC, neutral range pH 7.8, 0.001 molar aqueous ammonium hydrogencarbonate/acetonitrile
[7] = pH 2.7, HPLC, acidic range pH 2.7, 0.1% aqueous formic acid/acetonitrile, read-out: logp-acidic

SMILES | logp-acidic ([1]; pH 2.7) | logp-neutral ([1]; pH 7.8) | efficacy in % (aphids killed) (Myzus persicae [2]) | efficacy in % (aphids killed) (Myzus persicae [3]) | also measured
CN(C(=O)c1cnc(-c2cccc(S(C)(=O)=O)c2)n1C)c1cccnc1 [Example 22] | 0.75 | 1.08 | 100% | 100% | 
CSc1ncccc1-c1ncc(C(=O)N(C)c2cccnc2)n1C [Example 91] | 0.93 | 1.33 | 100% | 90% | 
CCN(C(=O)c1cncn1C)c1cccnc1 [VII-ethyl] |  |  |  |  | chromatographic logP [1, 4]: 0.78
CN(C(=O)c1cnc(-c2ccc(F)c(C#N)c2)n1C)c1cccnc1 [Example 63] |  |  | 100% | 90% | logp-acidic [1, 5]: 1.15; logp-neutral [1, 6]: 1.52
CN(C(=O)c1cnc(-c2cccc([S+]([O-])CC(F)(F)F)c2)n1C)c1cccnc1 (centres unmarked) [Example 5] | 1.07 | 1.43 | 100% | 90% | 
COc1ncccc1-c1ncc(C(=O)N(C)c2cccnc2)n1C [Example 88] | 0.53 | 1.16 | 100% | 90% | 
COc1ccc(C#N)cc1-c1ncc(C(=O)N(C)c2cccnc2)n1C [Example 62] |  |  | 100% | 100% | logp-acidic [1, 5]: 0.78; logp-neutral [1, 6]: 1.37
CN(C(=O)c1cnc(-c2cccc(Cl)c2)n1C)c1cccnc1 [Example 10] |  |  | 100% | 90% | logp-acidic [1, 5]: 1.29
CN(C(=O)c1cnc(-c2cccc3ccccc23)n1C)c1cccnc1 [Example 27] | 1.35 | 1.89 | 100% | 90% | 
Cc1cc(F)c(-c2ncc(C(=O)N(C)c3cccnc3)n2C)cc1SCC(F)(F)F [Example 2] |  |  |  |  | pest or weed control at 20 ppm (Myzus persicae [2]): 100%; chromatographic logP [1, 7]: 2.23; chromatographic logP [1, 4]: 2.48; pest or weed control at 500 g/ha (Myzus persicae [3]): 90%
CN(C(=O)c1cnc(-c2cccc(SCC3CC3)c2)n1C)c1cccnc1 [Example 18] | 1.87 | 2.36 | 100% | 90% | 
CCN(C(=O)c1cnc(-c2cnc(OC)c(C#N)c2)n1C)c1cccnc1 [Example 75] |  |  |  |  | pest or weed control at 20 ppm (Myzus persicae [2]): 100%; chromatographic logP [1, 7]: 1.46; chromatographic logP [1, 4]: 1.65; pest or weed control at 500 g/ha (Myzus persicae [3]): 100%
CN(C(=O)c1cnc(-c2ccccc2Cl)n1C)c1cccnc1 [Example 9] |  |  | 100% | 100% | logp-acidic [1, 5]: 1.10
CN(C(=O)c1cnc(Br)n1C)c1cccnc1 [XI] |  |  |  |  | chromatographic logP [1, 7]: 0.65; chromatographic logP [1, 4]: 0.93
Cc1cc(F)c(B2OC(C)(C)C(C)(C)O2)cc1SCC(F)(F)F [XVI, 2-{2-fluoro-4-methyl-5-[(2,2,2-trifluoroethyl)sulphanyl]phenyl}-4,4,5,5-tetramethyl-1,3,2-dioxaborolane] |  |  |  |  | chromatographic logP [1, 7]: 4.89; chromatographic logP [1, 4]: 4.8
CN(C(=O)c1cnc(-c2ccncc2)n1C)c1cccnc1 [Example 33] |  |  |  |  | pest or weed control at 20 ppm (Myzus persicae [2]): 100%; pest or weed control at 500 g/ha (Myzus persicae [3]): 100%
CCOc1ncccc1-c1ncc(C(=O)N(C)c2cccnc2)n1C [Example 92] | 0.8 | 1.43 | 100% | 90% | 
CN(C(=O)c1cnc(-c2cccc(COC(=O)C3CC3)c2)n1C)c1cccnc1 [Example 45] | 1.28 | 1.86 | 90% | 90% | 
CN(C(=O)c1cnc(-c2ccccc2OCC(N)=O)n1C)c1cccnc1 [Example 104] | 0.23 | 1.03 | 100% | 100% | 
CN(C(=O)c1cnc(-c2ccc(C#N)c(C(F)(F)F)c2)n1C)c1cccnc1 [Example 55] |  |  |  |  | pest or weed control at 20 ppm (Myzus persicae [2]): 100%; chromatographic logP [1, 7]: 1.72; chromatographic logP [1, 4]: 1.92; pest or weed control at 500 g/ha (Myzus persicae [3]): 90%
CN(C(=O)c1cnc(-c2ccc(Cl)c(C#N)c2)n1C)c1cccnc1 [Example 59] |  |  | 100% | 90% | logp-acidic [1, 5]: 1.42; logp-neutral [1, 6]: 1.69
COc1ccc(-c2ncc(C(=O)N(C)c3cccnc3)n2C)cc1[N+](=O)[O-] [Example 96] |  |  |  |  | logp-acidic [1, 5]: 1.2; logp-neutral [1, 6]: 1.53
COC(=O)c1cnc(-c2cc(SCC(F)(F)F)c(C)cc2F)n1C [XVIII, methyl 2-{2-fluoro-4-methyl-5-[(2,2,2-trifluoroethyl)sulphanyl]phenyl}-1-methyl-1H-imidazole-5-carboxylate] |  |  |  |  | chromatographic logP [1, 7]: 3.09; chromatographic logP [1, 4]: 3.19
Cc1cc(F)c(-c2ncc(C(=O)O)n2C)cc1SCC(F)(F)F [XIX] |  |  |  |  | chromatographic logP [1, 7]: 1.83; chromatographic logP [1, 4]: 0.95
CN(C(=O)c1cnc(-c2cccc(COC3CCOCC3)c2)n1C)c1cccnc1 [Example 20] |  |  |  |  | chromatographic logP [1, 7]: 1.11; chromatographic logP [1, 4]: 1.57; pest or weed control at 500 g/ha (Myzus persicae [3]): 90%
C#Cc1ncc(C(=O)N(C)c2cccnc2)n1C [XIV, 2-ethynyl-N,1-dimethyl-N-(pyridin-3-yl)-1H-imidazole-5-carboxamide] |  |  |  |  | chromatographic logP [1, 7]: 0.53; chromatographic logP [1, 4]: 0.87

Now from value to compound, other results behind:

logp-acidic ([1]; pH 2.7) | logp-neutral ([1]; pH 7.8) | SMILES | efficacy in % (aphids killed) (Myzus persicae [2]) | efficacy in % (aphids killed) (Myzus persicae [3]) | also measured
1.80 | 2.02 | CCOC(=O)COc1cc(-c2ncc(C(=O)N(C)c3cccnc3)n2C)cc(F)c1F [Example 42] |  |  | 
1.07 | 1.49 | CN(C(=O)c1cnc(-c2cnn(-c3ccccc3C#N)c2)n1C)c1cccnc1 [Example 24] | 100% | 90% | 
1.21 | 1.68 | CN(C(=O)c1cnc(-c2cnn(-c3ccc(F)cc3)c2)n1C)c1cccnc1 [Example 25] | 100% | 90% | 
1.37 | 1.67 | COc1cc(-c2ncc(C(=O)N(C)c3cccnc3)n2C)cc(OC)n1 [Example 97] | 100% | 100% | 
0.93 | 1.53 | CCOc1ccc(-c2ncc(C(=O)N(C)c3cccnc3)n2C)cn1 [Example 89] | 100% | 90% | 
0.91 | 1.38 | COc1ncc(F)cc1-c1ncc(C(=O)N(C)c2cccnc2)n1C [Example 101] | 100% | 100% | 
0.88 | 1.24 | CC(C)n1cc(-c2ncc(C(=O)N(C)c3cccnc3)n2C)nn1 [Example 73] | 100% | 100% | 
1.75 | 2 | COc1ncc(-c2ncc(C(=O)N(C)c3cccnc3)n2C)cc1C(F)(F)F [Example 95] | 100% | 100% | 
1.22 | 1.65 | CN(C(=O)c1cnc(-c2cccc(C(F)F)c2)n1C)c1cccnc1 [Example 48] | 100% | 100% | 
1.69 | 1.95 | CCOc1ncc(-c2ncc(C(=O)N(CC)c3cccnc3)n2C)cc1C#N [Example 76] | 100% | 90% | 
1.18 | 1.70 | CCOC(=O)COc1cccc(-c2ncc(C(=O)N(C)c3cccnc3)n2C)c1 [Example 41] |  |  | 
0.9 |  | COc1ccc(OC)c(-c2ncc(C(=O)N(C)c3cccnc3)n2C)c1 [Example 85] | 100% |  | 
1.57 | 2.05 | CN(C(=O)c1cnc(-c2ccc(F)c3ccccc23)n1C)c1cccnc1 [Example 30] | 100% | 90% | 
1.14 | 1.59 | CSc1ccccc1-c1ncc(C(=O)N(C)c2cccnc2)n1C [Example 98] | 100% |  | 
1.44 |  | CCOC(=O)COc1cc(-c2ncc(C(=O)N(C)c3cccnc3)n2C)ccc1F [Example 43] |  |  | 
